# Test results: patent US20260263593A1, “ALLERGY ANTIGEN AND EPITOPE THEREOF” (HOYU CO., LTD., priority 2018, published 2026)
# Tested on: IgE antibody present in the serum of a shrimp-allergic patient
# Assay: Epitope mapping (1): array of overlapping 15-amino-acid peptides, chemiluminescence
# Format: binding, human
# Details: 15-amino-acid peptide array; serum of 37 patients; difference from N2nd value of 5 non-shrimp-allergic subjects at least 35,000
# Procedure: Epitope mapping was carried out using a library of overlapping peptides (length: 15 amino acids) corresponding to the amino acid sequences identified as allergy components of shrimp and the amino acid sequence of arginine kinase. Specifically, the library of overlapping peptides was prepared on the basis of the amino acid sequences of SEQ ID NOs: 117, 141, 146, 2, 45, 87, 276, 161, 230, 179, 362, 381, 399, 421, 455, 481, 486, 520, 541, 300 and 306, and arginine kinase.
# The peptides to be synthesized were shifted by 10 amino acids.
# For preparation of peptide arrays, the Intavis CelluSpots™ technique was used. Specifically, the peptide arrays were prepared by the following procedure: (1) synthesizing peptides of interest on amino-modified cellulose disks using an automated chemical synthesis apparatus (Intavis MultiPep RS), (2) dissolving the amino-modified cellulose disks to obtain a cellulose-bound peptide solution, and (3) spotting the cellulose-bound peptides onto coated glass slides. The details of each procedure are as described below.
# Peptide synthesis was carried out in incremental steps through 9-fluorenylmethoxycarbonyl (Fmoc) chemical reaction on amino-modified cellulose disks in 384-well synthesis plates. Specifically, amino acids in which a Fmoc group is bonded to an amino group were activated in a solution of N,N′-diisopropylcarbodiimide (DIC) and 1-hydroxybenzotriazole (HOBt) in dimethylformamide (DMF) and added dropwise to the cellulose disks so that the Fmoc group-bound amino acids were bound to the amino groups on the cellulose disks (coupling). Unreacted amino groups were capped with acetic anhydride and washed with DMF. Furthermore, the Fmoc groups were eliminated from the amino groups of the amino acids bound to the amino groups on the cellulose disks by treatment with piperidine and washing with DMF. The amino acids bound to the amino groups on the cellulose disks were repetitively subjected to the coupling, the capping, and the Fmoc group elimination described above to elongate the amino terminus for peptide synthesis.
# The peptides-bound cellulose disks of interest obtained above in the subsection titled “(1) Synthesis of peptide” were transferred to 96-well plates and treated with a side chain deprotection mixed solution of trifluoroacetic acid (TFA), dichloromethane, triisopropylsilane (TIPS), and water for deprotection of amino acid side chains. Then, the deprotected cellulose-bound peptides were dissolved in a mixed solution of TFA, trifluoromethanesulfonic acid (TFMSA), TIPS, and water and precipitated in tetrabutyl methyl ether (TBME), and the precipitate was resuspended in dimethyl sulfoxide (DMSO) and mixed with a mixed solution of NaCl, sodium citrate, and water to obtain a peptide solution for slide spotting.
# The peptide solution for slide spotting obtained above in the subsection titled “(2) Dissolution of amino-modified cellulose disk” was spotted onto Intavis CelluSpots™ slides using Intavis Slide Spotting Robot, and the slides were dried to prepare peptide arrays.
# The presence or absence of binding, to each peptide fragment, of an IgE antibody present in the serum of a shrimp-allergic patient was measured through antigen-antibody reaction using the peptide arrays. […]
row,Substance,Peptide bound to an IgE antibody in serum in a patient-specific manner
1,"E4: common 15-residue IgE-binding epitope sequence of polypeptide (E4), myosin heavy chain type 1-derived (HGELEESRTLLEQSD; VAR_SEQ 1..15 epitope) [Epitope E4]",bound to an IgE antibody in serum in a patient-specific manner
2,"E31: common 15-residue IgE-binding epitope sequence of polypeptide (E31), myosin heavy chain type 1-derived (ESRGRATLLGKFRNL; VAR_SEQ 1..15 epitope) [Epitope E31]",bound to an IgE antibody in serum in a patient-specific manner
3,"E35: common 15-residue IgE-binding epitope sequence of polypeptide (E35), myosin heavy chain type 1-derived (ERGYHIFYQMMSDQV; VAR_SEQ 1..15 epitope) [Epitope E35]",bound to an IgE antibody in serum in a patient-specific manner
4,"E39: common 15-residue IgE-binding epitope sequence of polypeptide (E39), myosin heavy chain type 1-derived (VQKTNQDKATKDHQI; VAR_SEQ 1..15 epitope) [Epitope E39]",bound to an IgE antibody in serum in a patient-specific manner
5,"E37: common 15-residue IgE-binding epitope sequence of polypeptide (E37), myosin heavy chain type 1-derived (IMHQLTCNGVLEGIR; VAR_SEQ 1..15 epitope) [Epitope E37]",bound to an IgE antibody in serum in a patient-specific manner
6,"E21: common 15-residue IgE-binding epitope sequence of polypeptide (E21), troponin I-derived (MADEEAKKKQEEIDR; VAR_SEQ 1..15 epitope) [Epitope E21]",bound to an IgE antibody in serum in a patient-specific manner
7,"E14: common 15-residue IgE-binding epitope sequence of polypeptide (E14), hemocyanin subunit L1-derived (ERGIDVLGDVIESSL; VAR_SEQ 1..15 epitope) [Epitope E14]",bound to an IgE antibody in serum in a patient-specific manner
8,"E43: common 15-residue IgE-binding epitope sequence of polypeptide (E43), myosin heavy chain type 1-derived (EIDKRIQEKEEEFDA; VAR_SEQ 1..15 epitope) [Epitope E43]",bound to an IgE antibody in serum in a patient-specific manner
9,"E13: common 15-residue IgE-binding epitope sequence of polypeptide (E13), glycogen phosphorylase-derived (EWVVHLDQLTKLKPL; VAR_SEQ 1..15 epitope) [Epitope E13]",bound to an IgE antibody in serum in a patient-specific manner
10,"E24: common 15-residue IgE-binding epitope sequence of polypeptide (E24), arginine kinase-derived (LFDPIIEDYHVGFKQ; VAR_SEQ 1..15 epitope) [Epitope E24]",bound to an IgE antibody in serum in a patient-specific manner
11,"E23: common 15-residue IgE-binding epitope sequence of polypeptide (E23), cyclophilin A-derived (SCFHRVIPNFMCQGG; VAR_SEQ 1..15 epitope) [Epitope E23]",bound to an IgE antibody in serum in a patient-specific manner
12,"E47: common 15-residue IgE-binding epitope sequence of polypeptide (E47), phosphopyruvate hydratase-derived (HLKAVIKGRFGLDAT; VAR_SEQ 1..15 epitope) [Epitope E47]",bound to an IgE antibody in serum in a patient-specific manner
13,"E26: common 15-residue IgE-binding epitope sequence of polypeptide (E26), myosin heavy chain type 1-derived (PDPDPTEYLFISREQ; VAR_SEQ 1..15 epitope) [Epitope E26]",bound to an IgE antibody in serum in a patient-specific manner
14,"E9: common 15-residue IgE-binding epitope sequence of polypeptide (E9), myosin heavy chain type 2-derived (DQLATELDASQKECR; VAR_SEQ 1..15 epitope) [Epitope E9]",bound to an IgE antibody in serum in a patient-specific manner
15,"E46: common 15-residue IgE-binding epitope sequence of polypeptide (E46), phosphopyruvate hydratase-derived (TGVHEALEMRDGDKS; VAR_SEQ 1..15 epitope) [Epitope E46]",bound to an IgE antibody in serum in a patient-specific manner
16,"E27: common 15-residue IgE-binding epitope sequence of polypeptide (E27), myosin heavy chain type 1-derived (KLVTVKLPSGETKDF; VAR_SEQ 1..15 epitope) [Epitope E27]",bound to an IgE antibody in serum in a patient-specific manner
17,"E18: common 15-residue IgE-binding epitope sequence of polypeptide (E18), phosphopyruvate hydratase-derived (NKLAMQEFMILPTGA; VAR_SEQ 1..15 epitope) [Epitope E18]",bound to an IgE antibody in serum in a patient-specific manner
18,"E45: common 15-residue IgE-binding epitope sequence of polypeptide (E45), pyruvate kinase 3-derived (WHKQLFTELSQQVHL; VAR_SEQ 1..15 epitope) [Epitope E45]",bound to an IgE antibody in serum in a patient-specific manner
19,"E40: common 15-residue IgE-binding epitope sequence of polypeptide (E40), myosin heavy chain type 1-derived (EISHQDEIINKVNKE; VAR_SEQ 1..15 epitope) [Epitope E40]",bound to an IgE antibody in serum in a patient-specific manner
20,"E2: common 15-residue IgE-binding epitope sequence of polypeptide (E2), myosin heavy chain type 1-derived (ARVISQSPAERGYHI; VAR_SEQ 1..15 epitope) [Epitope E2]",bound to an IgE antibody in serum in a patient-specific manner
21,"E22: common 15-residue IgE-binding epitope sequence of polypeptide (E22), cyclophilin A-derived (VMELRADVVPKTAEN; VAR_SEQ 1..15 epitope) [Epitope E22]",bound to an IgE antibody in serum in a patient-specific manner
22,"E28: common 15-residue IgE-binding epitope sequence of polypeptide (E28), myosin heavy chain type 1-derived (RGYHIFYQLMCDQID; VAR_SEQ 1..15 epitope) [Epitope E28]",bound to an IgE antibody in serum in a patient-specific manner
23,"E42: common 15-residue IgE-binding epitope sequence of polypeptide (E42), myosin heavy chain type 1-derived (QLEDTKKMVDDESRE; VAR_SEQ 1..15 epitope) [Epitope E42]",bound to an IgE antibody in serum in a patient-specific manner
24,"E20: common 15-residue IgE-binding epitope sequence of polypeptide (E20), mitochondrial ATP synthase subunit alpha precursor-derived (PESDAKLKQIVTDFL; VAR_SEQ 1..15 epitope) [Epitope E20]",bound to an IgE antibody in serum in a patient-specific manner
